The record followed here is ChEMBL document CHEMBL4033703, “Novel delta opioid receptor agonists with oxazatricyclodecane structure showing potent agonistic activities” (Bioorg Med Chem Lett, 2017).

T3 sequence (P41145 whole entry): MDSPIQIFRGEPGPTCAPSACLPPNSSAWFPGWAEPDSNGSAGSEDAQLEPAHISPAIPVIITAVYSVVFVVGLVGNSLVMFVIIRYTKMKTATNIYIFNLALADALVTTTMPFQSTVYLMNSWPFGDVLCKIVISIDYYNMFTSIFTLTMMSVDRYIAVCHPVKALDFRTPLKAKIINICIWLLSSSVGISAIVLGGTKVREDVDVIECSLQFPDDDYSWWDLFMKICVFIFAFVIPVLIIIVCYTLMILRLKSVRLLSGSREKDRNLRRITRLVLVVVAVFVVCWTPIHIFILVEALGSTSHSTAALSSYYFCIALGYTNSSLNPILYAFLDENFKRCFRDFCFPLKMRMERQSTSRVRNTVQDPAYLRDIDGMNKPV
T1 sequence (P35372 whole entry): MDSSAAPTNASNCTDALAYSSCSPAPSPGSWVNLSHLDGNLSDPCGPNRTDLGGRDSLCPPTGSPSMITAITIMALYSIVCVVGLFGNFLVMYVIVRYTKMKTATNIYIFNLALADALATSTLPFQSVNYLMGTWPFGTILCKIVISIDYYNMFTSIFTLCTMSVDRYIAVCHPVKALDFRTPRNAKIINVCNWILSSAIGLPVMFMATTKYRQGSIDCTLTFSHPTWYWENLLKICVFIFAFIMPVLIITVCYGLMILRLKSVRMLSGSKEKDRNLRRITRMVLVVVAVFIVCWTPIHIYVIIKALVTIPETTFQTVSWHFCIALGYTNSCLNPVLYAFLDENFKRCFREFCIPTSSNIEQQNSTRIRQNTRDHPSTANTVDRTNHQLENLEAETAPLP
Chain of Delta-type opioid receptor (Mus musculus, UniProt P32300) (P32300 whole entry): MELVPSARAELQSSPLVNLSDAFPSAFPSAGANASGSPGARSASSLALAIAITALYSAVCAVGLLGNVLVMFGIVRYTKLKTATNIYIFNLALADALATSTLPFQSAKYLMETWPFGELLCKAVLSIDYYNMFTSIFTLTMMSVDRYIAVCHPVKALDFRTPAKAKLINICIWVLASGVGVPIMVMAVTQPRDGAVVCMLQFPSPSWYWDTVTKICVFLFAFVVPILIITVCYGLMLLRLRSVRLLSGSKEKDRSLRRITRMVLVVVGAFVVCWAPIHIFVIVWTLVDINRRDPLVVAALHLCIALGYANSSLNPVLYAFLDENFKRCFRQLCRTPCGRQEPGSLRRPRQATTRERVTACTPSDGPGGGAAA

The first assay addresses Delta-type opioid receptor (Mus musculus, UniProt P32300). The assay can be described thus: Displacement of [3H]DPDPE from delta opioid receptor in mouse whole brain without cerebellum membrane. On the technique in general: Loss of bound radioactivity is the signal in a displacement assay; it reports binding, not function.
A word on the Ki: it is the dissociation constant of the complex between target and ligand, obtained from inhibition or displacement. With `O=C(c1ccccc1)N1C[C@H]2OC34CCC1C2C31CCN(CC2CC2)C4Cc2ccc(O)cc21` (some centres not stated), the inhibition constant (Ki) was 274 pM. This counts as sub-nanomolar.

Regarding `O=C(c1ccccc1)N1C[C@H]2OC34CCC1C2C31CCN(CCc2ccccc2)C4Cc2ccc(O)cc21` (some centres not stated), the affinity corresponds to a Ki of 458 pM.

Another assay deals with Mu-type opioid receptor (Mus musculus, UniProt P42866). Put plainly: Displacement of [3H]DAMGO from mu opioid receptor in mouse whole brain without cerebellum membrane.
Chain of Mu-type opioid receptor (Mus musculus, UniProt P42866) (P42866 whole entry): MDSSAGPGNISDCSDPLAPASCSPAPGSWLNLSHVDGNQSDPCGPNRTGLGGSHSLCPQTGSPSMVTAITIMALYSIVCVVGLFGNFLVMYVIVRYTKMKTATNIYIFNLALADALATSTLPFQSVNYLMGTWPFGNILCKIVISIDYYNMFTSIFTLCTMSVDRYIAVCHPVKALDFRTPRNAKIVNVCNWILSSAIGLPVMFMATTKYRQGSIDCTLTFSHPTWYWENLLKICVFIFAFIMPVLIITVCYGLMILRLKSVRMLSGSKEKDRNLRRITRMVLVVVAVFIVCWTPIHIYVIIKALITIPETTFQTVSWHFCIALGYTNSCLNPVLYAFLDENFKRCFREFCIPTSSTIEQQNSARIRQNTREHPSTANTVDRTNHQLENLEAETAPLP
Compound `O=C(c1ccccc1)N1C[C@H]2OC34CCC1C2C31CCN(CC2CC2)C4Cc2ccc(O)cc21` (some centres not stated) showed an inhibitory constant (Ki) of 325 pM.

`O=C(c1ccccc1)N1C[C@H]2OC34CCC1C2C31CCN(CCc2ccccc2)C4Cc2ccc(O)cc21` (some centres not stated) came in with a Ki of 548 pM.

The next assay concerns the target T1, Mu-type opioid receptor (Homo sapiens, UniProt P35372). Put plainly: Displacement of [3H]DAMGO from human mu opioid receptor expressed in CHO cells. Format: cell-based.
As for `O=S(=O)(c1ccccc1)N1C[C@H]2OC34CCC1C2C31CCN(CC2CC2)C4Cc2ccc(O)cc21` (some centres not stated), the inhibition constant (Ki) is 308 pM.

With `Oc1ccc2c(c1)C13CCN(CC4CC4)C(C2)C12CCC1C3[C@@H](CN1Cc1ccccc1)O2` (some centres not stated), the affinity corresponds to a Ki of 1560 pM.

For `O=C(c1ccccc1)N1C[C@H]2OC34CCC1C2C31CCN(CC2CC2)C4Cc2ccc(O)cc21` (some centres not stated), the inhibitory constant (Ki) was found to be 627 pM. Compared with the last compound, the Ki is about 2.5-fold lower.

Test system in a further assay: not listed separately
Put plainly: Selectivity ratio of Ki for kappa opioid receptor in guinea pig cerebellum membrane to Ki for delta opioid receptor in mouse whole brain without cerebellum. Format: cell membranes.
`O=C(c1ccccc1)N1C[C@H]2OC34CCC1C2C31CCN(CC2CC2)C4Cc2ccc(O)cc21` (some centres not stated): the Ratio Ki is 4.4.

`O=C(c1ccccc1)N1C[C@H]2OC34CCC1C2C31CCN(CCc2ccccc2)C4Cc2ccc(O)cc21` (some centres not stated): the Ratio Ki was 74.

The species named for a further assay is Mus musculus. The assay can be described thus: Selectivity ratio of Ki for mu opioid receptor in mouse whole brain without cerebellum to Ki for delta opioid receptor in mouse whole brain without cerebellum.
With `O=C(c1ccccc1)N1C[C@H]2OC34CCC1C2C31CCN(CC2CC2)C4Cc2ccc(O)cc21` (some centres not stated), the Ratio Ki came out at 1.2.

Regarding `O=C(c1ccccc1)N1C[C@H]2OC34CCC1C2C31CCN(CCc2ccccc2)C4Cc2ccc(O)cc21` (some centres not stated), the Ratio Ki was determined as 1.2.

The target of another assay is Kappa-type opioid receptor (Cavia porcellus, UniProt P41144). The assay can be described thus: Displacement of [3H]U-69,593 from kappa opioid receptor in guinea pig cerebellum membrane. The class given is cell membranes.
Chain of Kappa-type opioid receptor (Cavia porcellus, UniProt P41144) (P41144 whole entry): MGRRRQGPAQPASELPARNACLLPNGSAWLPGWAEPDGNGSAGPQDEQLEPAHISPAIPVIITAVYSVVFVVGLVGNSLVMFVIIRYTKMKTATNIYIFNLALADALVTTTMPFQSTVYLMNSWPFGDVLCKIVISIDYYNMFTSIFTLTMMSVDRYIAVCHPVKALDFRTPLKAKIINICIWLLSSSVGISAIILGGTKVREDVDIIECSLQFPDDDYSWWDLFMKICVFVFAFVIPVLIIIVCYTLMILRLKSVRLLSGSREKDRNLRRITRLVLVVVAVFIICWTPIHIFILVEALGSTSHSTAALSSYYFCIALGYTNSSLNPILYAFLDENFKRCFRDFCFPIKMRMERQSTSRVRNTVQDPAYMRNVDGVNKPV
The compound `O=C(c1ccccc1)N1C[C@H]2OC34CCC1C2C31CCN(CC2CC2)C4Cc2ccc(O)cc21` (some centres not stated) gave a Ki of 1210 pM. This counts as single-digit nanomolar.

Compound `O=C(c1ccccc1)N1C[C@H]2OC34CCC1C2C31CCN(CCc2ccccc2)C4Cc2ccc(O)cc21` (some centres not stated) came in with a Ki of 34100 pM.

In a further assay the target is T2, Delta-type opioid receptor (Homo sapiens, UniProt P41143). The assay can be described thus: Displacement of [3H]DPDPE from human delta opioid receptor expressed in CHO cells. Format: cell-based.
T2 sequence (P41143 whole entry): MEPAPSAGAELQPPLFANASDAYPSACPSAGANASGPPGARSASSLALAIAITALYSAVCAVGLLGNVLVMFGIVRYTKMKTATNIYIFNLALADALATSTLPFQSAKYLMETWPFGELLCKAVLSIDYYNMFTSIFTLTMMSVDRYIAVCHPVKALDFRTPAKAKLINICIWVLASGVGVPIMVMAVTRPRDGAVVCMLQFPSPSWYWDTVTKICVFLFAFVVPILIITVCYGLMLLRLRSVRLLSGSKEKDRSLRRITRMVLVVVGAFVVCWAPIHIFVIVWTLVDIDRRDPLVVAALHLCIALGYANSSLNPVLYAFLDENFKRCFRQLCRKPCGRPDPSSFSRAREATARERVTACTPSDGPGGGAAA
On to `O=S(=O)(c1ccccc1)N1C[C@H]2OC34CCC1C2C31CCN(CC2CC2)C4Cc2ccc(O)cc21` (some centres not stated), for which the affinity, expressed as Ki, was 221 pM.

Regarding `Oc1ccc2c(c1)C13CCN(CC4CC4)C(C2)C12CCC1C3[C@@H](CN1Cc1ccccc1)O2` (some centres not stated), the inhibition constant (Ki) stood at 501 pM. This Ki is about 2.3-fold higher than that of the compound before.

The compound `O=C(c1ccccc1)N1C[C@H]2OC34CCC1C2C31CCN(CC2CC2)C4Cc2ccc(O)cc21` (some centres not stated) displayed a Ki of 154 pM.

Another assay concerns the target T3, Kappa-type opioid receptor (Homo sapiens, UniProt P41145). The assay can be described thus: Displacement of [3H]U-69,593 from human kappa opioid receptor expressed in CHO cells. Format: cell-based.
With `O=S(=O)(c1ccccc1)N1C[C@H]2OC34CCC1C2C31CCN(CC2CC2)C4Cc2ccc(O)cc21` (some centres not stated), the affinity corresponds to a Ki of 658 pM.

`Oc1ccc2c(c1)C13CCN(CC4CC4)C(C2)C12CCC1C3[C@@H](CN1Cc1ccccc1)O2` (some centres not stated) yielded a Ki of 1380 pM.

`O=C(c1ccccc1)N1C[C@H]2OC34CCC1C2C31CCN(CC2CC2)C4Cc2ccc(O)cc21` (some centres not stated) displayed a Ki of 1050 pM.

Another assay deals with T1, Mu-type opioid receptor. The assay can be described thus: Agonist activity at human mu opioid receptor expressed in CHO cells assessed as inhibition of forskolin-induced cAMP accumulation after 30 mins by Eu-cAMP tracer based TR-FRET assay. Format: functional, cell-based. A general note: Cyclic AMP is a second messenger, typically raised through Gs and lowered through Gi signalling.
One may read the EC50 as the concentration giving half of the maximal effect. On to `O=S(=O)(c1ccccc1)N1C[C@H]2OC34CCC1C2C31CCN(CC2CC2)C4Cc2ccc(O)cc21` (some centres not stated), for which the concentration giving a half-maximal response (EC50) worked out at 2500 pM.

On to `O=C(c1ccccc1)N1C[C@H]2OC34CCC1C2C31CCN(CCc2ccccc2)C4Cc2ccc(O)cc21` (some centres not stated), for which the concentration for a half-maximal effect (EC50) amounted to 5300 pM.

The target in a further assay is T2, Delta-type opioid receptor. Put plainly: Agonist activity at human delta opioid receptor expressed in CHO cells assessed as inhibition of forskolin-induced cAMP accumulation after 30 mins by Eu-cAMP tracer based TR-FRET assay. The class given is functional, cell-based.
In the case of `O=S(=O)(c1ccccc1)N1C[C@H]2OC34CCC1C2C31CCN(CC2CC2)C4Cc2ccc(O)cc21` (some centres not stated), the EC50 is 1200 pM.

As to `Oc1ccc2c(c1)C13CCN(CC4CC4)C(C2)C12CCC1C3[C@@H](CN1Cc1ccccc1)O2` (some centres not stated), the 50% effective concentration (EC50) came to 670 pM.

Turning to `COCCCN1CC[C@]23Cc4nc5ccccc5cc4C[C@@]2(O)[C@H]1Cc1ccc(O)cc13`, the ED50 came to 460 pM.

Regarding `O=C(c1ccccc1)N1C[C@H]2OC34CCC1C2C31CCN(CC2CC2)C4Cc2ccc(O)cc21` (some centres not stated), the 50% effective concentration (EC50) came to 540 pM.

On to `O=C(c1ccccc1)N1C[C@H]2OC34CCC1C2C31CCN(CCc2ccccc2)C4Cc2ccc(O)cc21` (some centres not stated), for which the half-maximal effective concentration (EC50) is 610 pM.

For the next assay, the target named is T3, Kappa-type opioid receptor. Put plainly: Agonist activity at human kappa opioid receptor expressed in CHO cells assessed as inhibition of forskolin-induced cAMP accumulation after 30 mins by Eu-cAMP tracer based TR-FRET assay. The class given is functional, cell-based.
Regarding `O=C(c1ccccc1)N1C[C@H]2OC34CCC1C2C31CCN(CCc2ccccc2)C4Cc2ccc(O)cc21` (some centres not stated), the EC50 is 404000 pM.

A further assay has as its target T1, Mu-type opioid receptor. The assay can be described thus: Agonist activity at human mu opioid receptor expressed in CHO cells assessed as inhibition of forskolin-induced cAMP accumulation at 10 uM after 30 mins by Eu-cAMP tracer based TR-FRET assay relative to DAMGO. Format: functional, cell-based.
In general, Emax refers to the maximal effect, on the per cent scale that the assay sets. For `Oc1ccc2c(c1)C13CCN(CC4CC4)C(C2)C12CCC1C3[C@@H](CN1Cc1ccccc1)O2` (some centres not stated), the Emax is 4.2%.

For the compound `COCCCN1CC[C@]23Cc4nc5ccccc5cc4C[C@@]2(O)[C@H]1Cc1ccc(O)cc13`, the Emax is 25%.

As to `O=C(c1ccccc1)N1C[C@H]2OC34CCC1C2C31CCN(CC2CC2)C4Cc2ccc(O)cc21` (some centres not stated), the maximal effect (Emax) is 3.9%.

In the next assay the target is T2, Delta-type opioid receptor. The assay can be described thus: Agonist activity at human delta opioid receptor expressed in CHO cells assessed as inhibition of forskolin-induced cAMP accumulation after 30 mins by Eu-cAMP tracer based TR-FRET assay relative to SNC80. Format: functional, cell-based.
As to `O=S(=O)(c1ccccc1)N1C[C@H]2OC34CCC1C2C31CCN(CC2CC2)C4Cc2ccc(O)cc21` (some centres not stated), the Emax worked out at 66%.

As for `Oc1ccc2c(c1)C13CCN(CC4CC4)C(C2)C12CCC1C3[C@@H](CN1Cc1ccccc1)O2` (some centres not stated), the Emax stood at 79%.

As for `COCCCN1CC[C@]23Cc4nc5ccccc5cc4C[C@@]2(O)[C@H]1Cc1ccc(O)cc13`, the Emax stood at 95%.

Regarding `O=C(c1ccccc1)N1C[C@H]2OC34CCC1C2C31CCN(CC2CC2)C4Cc2ccc(O)cc21` (some centres not stated), the maximal effect (Emax) is 96%.

In the case of `O=C(c1ccccc1)N1C[C@H]2OC34CCC1C2C31CCN(CCc2ccccc2)C4Cc2ccc(O)cc21` (some centres not stated), the Emax was 100%.

For another assay, the target named is T3, Kappa-type opioid receptor. The assay can be described thus: Agonist activity at human kappa opioid receptor expressed in CHO cells assessed as inhibition of forskolin-induced cAMP accumulation at 10 uM after 30 mins by Eu-cAMP tracer based TR-FRET assay relative to U-69,593. The class given is functional, cell-based.
As to `O=S(=O)(c1ccccc1)N1C[C@H]2OC34CCC1C2C31CCN(CC2CC2)C4Cc2ccc(O)cc21` (some centres not stated), the Emax was 19%.

Regarding `Oc1ccc2c(c1)C13CCN(CC4CC4)C(C2)C12CCC1C3[C@@H](CN1Cc1ccccc1)O2` (some centres not stated), the Emax was 12%.

For the compound `COCCCN1CC[C@]23Cc4nc5ccccc5cc4C[C@@]2(O)[C@H]1Cc1ccc(O)cc13`, the Emax was found to be 14%.

Turning to `O=C(c1ccccc1)N1C[C@H]2OC34CCC1C2C31CCN(CC2CC2)C4Cc2ccc(O)cc21` (some centres not stated), the Emax came out at 2.9%.

A further assay addresses T3, Kappa-type opioid receptor. Put plainly: Agonist activity at human kappa opioid receptor expressed in CHO cells assessed as inhibition of forskolin-induced cAMP accumulation after 30 mins by Eu-cAMP tracer based TR-FRET assay relative to U-69,593. Format: functional, cell-based.
In the case of `O=C(c1ccccc1)N1C[C@H]2OC34CCC1C2C31CCN(CCc2ccccc2)C4Cc2ccc(O)cc21` (some centres not stated), the Emax is 56%.

A further assay concerns the target T1, Mu-type opioid receptor. The assay can be described thus: Agonist activity at human mu opioid receptor expressed in CHO cells assessed as inhibition of forskolin-induced cAMP accumulation after 30 mins by Eu-cAMP tracer based TR-FRET assay relative to DAMGO. The class given is functional, cell-based.
Take `O=S(=O)(c1ccccc1)N1C[C@H]2OC34CCC1C2C31CCN(CC2CC2)C4Cc2ccc(O)cc21` (some centres not stated): the maximum response (Emax) stood at 54%.

In the case of `O=C(c1ccccc1)N1C[C@H]2OC34CCC1C2C31CCN(CCc2ccccc2)C4Cc2ccc(O)cc21` (some centres not stated), the Emax turned out to be 109%.
